# Source: article PMC8486872, “A rational blueprint for the design of chemically-controlled protein switches” (Nature Communications, 2021)
# “And” between values parts separate entries of the source, which are not always exact repeats. Equal entries are not always repeated.
# Columns and labels:
# [1] = test system: SEAP and Luciferase expression in HEK293T cells; assay: SIMO designer cells (AIR-1/2-GEMS + CDH-1/2-TF); type: cell-based; design: Bottom (best-fit value) / Top (best-fit value) / Span (best-fit value): unit not given here; settings: for logIC50 (best-fit value): drug in nM
# From the text: Fig. 5 Orthogonal chemical switches enable implementation of multi-input multi-output control modes in mammalian cells. a Scheme of multi-inputs multi-outputs (MIMO) designer cells where two drugs control two different outputs. b, c Cells were co-transfected with AIR-1/2-GEMS and CDH-3-TF regulate SEAP and Luciferase expression, respectively. […] AIR-1/2-GEMS coupled with SEAP expression circuits were co-transfected with CDH-1/2-TF circuits which control the Luciferase production. Respective drug concentrations ranged from 0.001 nM to 1 µM. All values presented are mean ± s.d. of three replicates and curves were fitted by four-parameters nonlinear regression. b, c, e, f, h, i Source data are available in the source data file.
# Finally, we engineered SIMO cells (Fig. 5g) using two designed switches that produce ON and OFF responses upon exposure to the same drug. We transfected cells with combinations of AIR-GEMS and CDH-TFs which controlled the expression of the reporter proteins SEAP and Luciferase, respectively. […] Therefore, computational design expanded the repertoire of protein switches controlled by the same compounds that can be used to simultaneous turn ON and OFF synergistic outputs. […]
# AIR-1-GEMS coupled with SEAP expression circuits (i) and CDH-1-TF circuits which control the Luciferase production (j). j-k) Quantification of SEAP and Luciferase activities under Drug-2. AIR-2-GEMS coupled with SEAP expression circuits (k) and CDH-2-TF circuits which control the Luciferase production (l). b-k) Each data point represents the mean of n = 3 biological replicates, and the dose-dependent curve were fitted using four-parameter nonlinear regression.
# [2] = test system: SEAP expression in HEK293T cells; assay: MISO designer cells (CDH-1 + CDH-3 dual switches); type: cell-based; design: SEAP / Bottom (best-fit value) / Top (best-fit value) / Span (best-fit value): unit not given here; settings: for logIC50 (best-fit value): drug in nM; for SEAP, Drug-1 turn OFF CDH-1-TF: Fig S13f; for SEAP, Drug-1 turn OFF CDH-1-GEMS: Fig S13g, representative data
# From the text: Fig. 5 Orthogonal chemical switches enable implementation of multi-input multi-output control modes in mammalian cells. a Scheme of multi-inputs multi-outputs (MIMO) designer cells where two drugs control two different outputs. b, c Cells were co-transfected with AIR-1/2-GEMS and CDH-3-TF regulate SEAP and Luciferase expression, respectively. […] AIR-1/2-GEMS coupled with SEAP expression circuits were co-transfected with CDH-1/2-TF circuits which control the Luciferase production. Respective drug concentrations ranged from 0.001 nM to 1 µM. […]
# We then engineered MISO cells (Fig. 5d) with CDH-1-TF and CDH-3-TF dual switches (Fig. 5e) that encode OFF behaviors controlled by Drug-1 and Drug-3. […] This output behavior is distinct from the typical SISO systems which only show two persistent states (high, low) (Fig. 2c, f). […] This type of output in biological systems could be utilized to produce graded levels of responses that are robust to minor oscillations in drug concentrations, and could be used to dissect fundamental biological processes but also to provide persistent response levels in translational applications.
# 1-TF and CDH-3-TF circuits. Drug-1 concentrations ranged from 0.001 nM to 1 µM (left) and 1 µM Drug-1 with serial diluted Drug-3 from 0.001 nM to 1 µM (right). g) Quantification of SEAP activity controlled […]
# by CDH-1-GEMS and CDH-3-GEMS circuits. […]
# Luciferase production (l). b-k) Each data point represents the mean of n = 3 biological replicates, and the dose-dependent curve were fitted using four-parameter nonlinear regression.
# [3] = sheet Figure5h, Luciferase, four-parameter fit
# [4] = sheet Figure5h, SEAP, four-parameter fit
# [5] = Fig5e SEAP, CDH-1-TF, + 1 µM Drug-3, four-parameter fit
# [6] = Fig5f SEAP, CDH-1-GEMS, + 1 µM Drug-3, three-parameter fit
smiles,measurement,setting,value
"CN(C)CC#Cc1ccc(OCCCc2sc(N3CCc4cccc(C(=O)Nc5nc6ccccc6s5)c4C3)nc2C(=O)O)c(F)c1 [Drug-1, A-1155463]",SEAP,"[1]; Fig S13h, AIR-1-GEMS control SEAP expression only, Drug-1 316 nM",301 U/L and 339 U/L and 443 U/L
same,Luciferase,"[1]; Fig S13h, AIR-1-GEMS control SEAP expression only, Drug-1 1000 nM",239.146 RLU and 224.11 RLU and 201.76 RLU
same,Bottom (best-fit value),[1]; [3],1591
same,HillSlope (best-fit value),[1]; [3],-0.5534
same,Span (best-fit value),[1]; [3],8125
same,Top (best-fit value),[1]; [3],9717
same,logIC50 (best-fit value),[1]; [3],1.252
same,IC50,"[1]; sheet Figure5h, Luciferase, four-parameter fit, read-out: IC50 (best-fit value)",17.9 nM
same,Bottom (best-fit value),[1]; [4],10.72
same,HillSlope (best-fit value),[1]; [4],0.8045
same,Span (best-fit value),[1]; [4],94.16
same,Top (best-fit value),[1]; [4],104.9
same,logIC50 (best-fit value),[1]; [4],1.797
same,Bottom (best-fit value),[2]; [5],10.05
same,HillSlope (best-fit value),[2]; [5],-1.155
same,Span (best-fit value),[2]; [5],11.2
same,Top (best-fit value),[2]; [5],21.26
same,logIC50 (best-fit value),[2]; [5],0.9359
same,SEAP,"[2]; Fig5e, turn OFF CDH-1-TF, 0.001 nM + 1 µM Drug-3",16.8327 and 22.6453 and 20.005
same,SEAP,"[2]; Fig5e, turn OFF CDH-1-TF, 0.01 nM + 1 µM Drug-3",20.9002 and 22.3965 and 21.4625
same,SEAP,"[2]; Fig5e, turn OFF CDH-1-TF, 0.1 nM + 1 µM Drug-3",21.6157 and 22.7521 and 21.3586
same,SEAP,"[2]; Fig5e, turn OFF CDH-1-TF, 1 nM + 1 µM Drug-3",21.4038 and 20.3272 and 21.0988
same,SEAP,"[2]; Fig5e, turn OFF CDH-1-TF, 10 nM + 1 µM Drug-3",13.4848 and 15.392 and 15.5387
same,SEAP,"[2]; Fig5e, turn OFF CDH-1-TF, 100 nM + 1 µM Drug-3",11.183 and 12.1962 and 11.7139
same,SEAP,"[2]; Fig5e, turn OFF CDH-1-TF, 1000 nM + 1 µM Drug-3",9.72 and 8.497 and 9.661
same,Bottom (best-fit value),[2]; [6],12.41
same,Span (best-fit value),[2]; [6],42.02
same,Top (best-fit value),[2]; [6],54.44
same,logIC50 (best-fit value),[2]; [6],0.8832
same,SEAP,"[2]; Fig5f, turn OFF CDH-1-GEMS, 0.001 nM + 1 µM Drug-3",55.6364 and 50.5517 and 48.8723
same,SEAP,"[2]; Fig5f, turn OFF CDH-1-GEMS, 0.01 nM + 1 µM Drug-3",61.2598 and 59.0443 and 45.7788
same,SEAP,"[2]; Fig5f, turn OFF CDH-1-GEMS, 0.1 nM + 1 µM Drug-3",46.4102 and 62.6516 and 50.3302
same,SEAP,"[2]; Fig5f, turn OFF CDH-1-GEMS, 1 nM + 1 µM Drug-3",57.5516 and 40.155 and 62.0361
same,SEAP,"[2]; Fig5f, turn OFF CDH-1-GEMS, 10 nM + 1 µM Drug-3",22.2271 and 39.6828 and 23.9896
same,SEAP,"[2]; Fig5f, turn OFF CDH-1-GEMS, 100 nM + 1 µM Drug-3",14.7907 and 24.2066 and 13.0137
same,SEAP,"[2]; Fig5f, turn OFF CDH-1-GEMS, 1000 nM + 1 µM Drug-3",8.999 and 11.1728 and 14.7089
same,"SEAP, Drug-1 turn OFF CDH-1-TF",[2]; Drug-1 0.001 nM,37.8605 U/L and 37.6407 U/L and 37.2767 U/L
same,"SEAP, Drug-1 turn OFF CDH-1-TF",[2]; Drug-1 0.01 nM,46.3191 U/L and 36.6964 U/L and 37.3836 U/L
same,"SEAP, Drug-1 turn OFF CDH-1-TF",[2]; Drug-1 0.1 nM,40.0956 U/L and 39.4221 U/L and 42.0031 U/L
same,"SEAP, Drug-1 turn OFF CDH-1-TF",[2]; Drug-1 1 nM,42.0045 U/L and 40.1385 U/L and 32.8382 U/L
same,"SEAP, Drug-1 turn OFF CDH-1-TF",[2]; Drug-1 10 nM,31.0901 U/L and 30.8325 U/L and 26.6542 U/L
same,"SEAP, Drug-1 turn OFF CDH-1-TF",[2]; Drug-1 100 nM,22.4541 U/L and 19.9215 U/L and 18.0282 U/L
same,"SEAP, Drug-1 turn OFF CDH-1-TF",[2]; Drug-1 1000 nM,23.3552 U/L and 18.7039 U/L and 14.93 U/L
same,"SEAP, Drug-1 turn OFF CDH-1-GEMS",[2]; Drug-1 0.001 nM,63.1346 U/L and 76.9207 U/L and 59.8899 U/L
same,"SEAP, Drug-1 turn OFF CDH-1-GEMS",[2]; Drug-1 0.01 nM,62.4115 U/L and 58.8113 U/L and 53.5466 U/L
same,"SEAP, Drug-1 turn OFF CDH-1-GEMS",[2]; Drug-1 0.1 nM,64.3309 U/L and 62.8524 U/L and 59.3961 U/L
same,"SEAP, Drug-1 turn OFF CDH-1-GEMS",[2]; Drug-1 1 nM,47.8019 U/L and 47.3132 U/L and 39.8687 U/L
same,"SEAP, Drug-1 turn OFF CDH-1-GEMS",[2]; Drug-1 10 nM,42.6016 U/L and 46.6627 U/L and 42.2581 U/L
same,"SEAP, Drug-1 turn OFF CDH-1-GEMS",[2]; Drug-1 100 nM,43.3282 U/L and 43.4567 U/L and 33.8379 U/L
same,"SEAP, Drug-1 turn OFF CDH-1-GEMS",[2]; Drug-1 1000 nM,36.4444 U/L and 23.5312 U/L and 44.7329 U/L
